From the supplement of paper PMC11061612

Columns and labels:
[1] = system: HPAF-II (Pancreatic Carcinoma); assay: combination Emax (second highest fraction inhibited in the dose matrix, 72 h); higher = more inhibition; extreme values may be limits of the assay
How it was run: (§1)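 Bliss excess equals the observed combination effect minus the expected value EA + EB − EA·EB, where EA and EB are the effects of each agent alone. Combination Emax is the second-highest inhibition within the matrix. Inhibition was scaled from CellTiter-Glo 2.0 luminescence, with 0 set by vehicle wells and 1 by blank wells, after 72 hours of two-drug dosing of cells plated in 1536-well plates.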

[2] = system: NCI-H1341 (Small Cell Lung Carcinoma); assay: as above
How it was run: as §1

[3] = system: WM35 (Melanoma); assay: as above
How it was run: as §1

[4] = system: NAMALWA (Burkitt's Lymphoma); assay: as above
How it was run: as §1

[5] = system: DBTRG-05MG (Glioblastoma); assay: as above
How it was run: as §1

[6] = system: T84 (Colorectal Carcinoma); assay: as above
How it was run: as §1

[7] = system: C-33-A (Cervical Carcinoma); assay: as above
How it was run: as §1

[8] = system: HT-1080 (Other Solid Carcinomas); assay: as above
How it was run: as §1

[9] = system: NB1 (Neuroblastoma); assay: as above
How it was run: as §1

[10] = system: SAT (Head and Neck Carcinoma); assay: as above
How it was run: as §1

[11] = system: SKG-IIIa (Cervical Carcinoma); assay: as above
How it was run: as §1

[12] = system: NCI-H2373 (Mesothelioma); assay: as above
How it was run: as §1

[13] = system: ZR-75-30 (Breast Carcinoma); assay: as above
How it was run: as §1

[14] = system: BxPC-3 (Pancreatic Carcinoma); assay: as above
How it was run: as §1

[15] = system: SNU-423 (Hepatocellular Carcinoma); assay: as above
How it was run: as §1

[16] = system: HPAF-II (Pancreatic Carcinoma); assay: Bliss excess, mean over the matrix (fraction); higher = more synergy
How it was run: as §1

Structure (SMILES) | combination Emax [1] | combination Emax [2] | combination Emax [3] | combination Emax [4] | combination Emax [5] | combination Emax [6] | combination Emax [7] | combination Emax [8] | combination Emax [9] | combination Emax [10] | combination Emax [11] | combination Emax [12] | combination Emax [13] | combination Emax [14] | combination Emax [15] | Bliss excess [16]
CN(C)CCCOc1ccc(-c2ccc3ncc4c(c3c2)n(C2CCOCC2)c(=O)n4C)cn1 [AZD0156] + O=C(c1cc(Cc2n[nH]c(=O)c3ccccc23)ccc1F)N1CCN(C(=O)C2CC2)CC1 [Olaparib] (first compound max 3 µM, partner max 3 µM) | 0.25 | 0.306 | 0.201 | 0.487 | 0.152 | 0.353 | 0.419 | 0.134 | 0.357 | 0.133 | 0.139 | 0.359 | 0.283 | 0.0983 | 0.293 | -0.0048
C=CCn1c(=O)c2cnc(Nc3ccc(N4CCN(C)CC4)cc3)nc2n1-c1cccc(C(C)(C)O)n1 [AZD1775] + C1CN(CCC1(C(=O)N[C@@H](CCO)C2=CC=C(C=C2)Cl)N)C3=NC=NC4=C3C=CN4 [Capivasertib] (first compound max 3 µM, partner max 3 µM) | 0.605 | 0.923 | 0.681 | 0.981 | 0.474 | 0.785 | 0.996 | 0.561 | 0.69 | 0.563 | 0.574 | 0.54 | 0.441 | 0.681 | 0.659 | -0.096
COc1nnc2ccc(N3CCC(c4ccc(OCCN5CCN(C)C(=O)[C@H]5C)cc4)CC3)nn12 [AZD5153] + C=CCn1c(=O)c2cnc(Nc3ccc(N4CCN(C)CC4)cc3)nc2n1-c1cccc(C(C)(C)O)n1 [AZD1775] (first compound max 1 µM, partner max 1 µM) | 0.449 | 0.972 | 0.467 | 0.969 | 0.369 | 0.349 | 0.956 | 0.522 | 0.842 | 0.785 | 0.546 | 0.399 | 0.309 | 0.529 | 0.462 | -0.0147
COc1nnc2ccc(N3CCC(c4ccc(OCCN5CCN(C)C(=O)[C@H]5C)cc4)CC3)nn12 [AZD5153] + CC1(C)CCC(CN2CCN(c3ccc(C(=O)NS(=O)(=O)c4ccc(NCC5CCOCC5)c([N+](=O)[O-])c4)c(Oc4cnc5[nH]ccc5c4)c3)CC2)=C(c2ccc(Cl)cc2)C1 [Venetoclax] (first compound max 1 µM, 7x7, partner max 1 µM) | 0.365 | 0.688 | 0.556 | 0.761 | 0.252 | 0.219 | 0.379 | 0.322 | 0.232 | 0.723 | 0.42 | 0.39 | 0.235 | 0.473 | 0.41 | -0.0057
COc1nnc2ccc(N3CCC(c4ccc(OCCN5CCN(C)C(=O)[C@H]5C)cc4)CC3)nn12 [AZD5153] + CCN(CCO)CCCOc1ccc2c(Nc3cc(CC(=O)Nc4cccc(F)c4)[nH]n3)ncnc2c1 [AZD2811] (first compound max 1 µM, 7x7, partner max 1 µM) | 0.379 | 0.659 | 0.534 | 0.748 | 0.333 | 0.202 | 0.476 | 0.387 | 0.556 | 0.775 | 0.495 | 0.41 | 0.313 | 0.491 | 0.507 | 0.0072
COc1nnc2ccc(N3CCC(c4ccc(OCCN5CCN(C)C(=O)[C@H]5C)cc4)CC3)nn12 [AZD5153] + C[C@@H]1COCCN1C2=NC(=NC(=C2)C3(CC3)[S@](=N)(=O)C)C4=C5C=CNC5=NC=C4 [AZD6738] (first compound max 1 µM, 7x7, partner max 10 µM) | 0.512 | 0.955 | 0.731 | 0.914 | 0.307 | 0.583 | 0.958 | 0.579 | 0.744 | 0.804 | 0.537 | 0.565 | 0.34 | 0.602 | 0.517 | 0.0002
COc1nnc2ccc(N3CCC(c4ccc(OCCN5CCN(C)C(=O)[C@H]5C)cc4)CC3)nn12 [AZD5153] + Cc1c2c(nn1C)CSCc1cc(n(C)n1)CSc1cc(c3ccccc3c1)OCCCc1c(C(=O)O)n(C)c3c-2c(Cl)ccc13 [AZD5991] (first compound max 1 µM, 7x7, partner max 1 µM) | 0.35 | 0.897 | 0.798 | 0.966 | 0.205 | 0.23 | 0.644 | 0.378 | 0.52 | 0.914 | 0.471 | 0.381 | 0.29 | 0.463 | 0.431 | -0.0124
COc1nnc2ccc(N3CCC(c4ccc(OCCN5CCN(C)C(=O)[C@H]5C)cc4)CC3)nn12 [AZD5153] + Cn1cnc2c(F)c(Nc3ccc(Br)cc3Cl)c(C(=O)NOCCO)cc21 [Selumetinib] (first compound max 1 µM, 7x7, partner max 10 µM) | 0.868 | 0.559 | 0.968 | 0.771 | 0.399 | 0.483 | 0.573 | 0.596 | 0.445 | 0.843 | 0.537 | 0.439 | 0.305 | 0.616 | 0.424 | 0.0634
CC1(C)CCC(CN2CCN(c3ccc(C(=O)NS(=O)(=O)c4ccc(NCC5CCOCC5)c([N+](=O)[O-])c4)c(Oc4cnc5[nH]ccc5c4)c3)CC2)=C(c2ccc(Cl)cc2)C1 [Venetoclax] + CCN(CCO)CCCOc1ccc2c(Nc3cc(CC(=O)Nc4cccc(F)c4)[nH]n3)ncnc2c1 [AZD2811] (first compound max 1 µM, 7x7, partner max 1 µM) |  | 0.495 | 0.152 | 0.56 | 0.228 | 0.127 | 0.312 | 0.27 | 0.606 | 0.187 | 0.229 | 0.232 | 0.11 | 0.365 | 0.229 | 
CC1(C)CCC(CN2CCN(c3ccc(C(=O)NS(=O)(=O)c4ccc(NCC5CCOCC5)c([N+](=O)[O-])c4)c(Oc4cnc5[nH]ccc5c4)c3)CC2)=C(c2ccc(Cl)cc2)C1 [Venetoclax] + CN(C)CCCOc1ccc(-c2ccc3ncc4c(c3c2)n(C2CCOCC2)c(=O)n4C)cn1 [AZD0156] (first compound max 1 µM, 7x7, partner max 1 µM) |  | 0.361 | 0.135 | 0.613 | 0.174 | 0.19 | 0.494 | 0.105 | 0.145 | 0.204 | 0.219 | 0.269 | 0.105 | 0.276 | 0.271 | 
CC1(C)CCC(CN2CCN(c3ccc(C(=O)NS(=O)(=O)c4ccc(NCC5CCOCC5)c([N+](=O)[O-])c4)c(Oc4cnc5[nH]ccc5c4)c3)CC2)=C(c2ccc(Cl)cc2)C1 [Venetoclax] + COc1cc(Nc2ncc3c(n2)-c2ccc(Cl)cc2C(c2c(F)cccc2OC)=NC3)ccc1C(=O)O [Alisertib] (first compound max 1 µM, 7x7, partner max 10 µM) |  | 0.968 | 0.152 | 0.661 | 0.279 | 0.315 | 0.446 | 0.299 | 0.561 | 0.545 | 0.286 | 0.253 | 0.137 | 0.226 | 0.361 | 
CC1(C)CCC(CN2CCN(c3ccc(C(=O)NS(=O)(=O)c4ccc(NCC5CCOCC5)c([N+](=O)[O-])c4)c(Oc4cnc5[nH]ccc5c4)c3)CC2)=C(c2ccc(Cl)cc2)C1 [Venetoclax] + C[C@@H]1COCCN1C2=NC(=NC(=C2)C3(CC3)[S@](=N)(=O)C)C4=C5C=CNC5=NC=C4 [AZD6738] (first compound max 1 µM, 7x7, partner max 10 µM) |  | 0.757 | 0.269 | 0.889 | 0.288 | 0.702 | 0.92 | 0.425 | 0.789 | 0.423 | 0.368 | 0.591 | 0.191 | 0.389 | 0.441 | 
CC1(C)CCC(CN2CCN(c3ccc(C(=O)NS(=O)(=O)c4ccc(NCC5CCOCC5)c([N+](=O)[O-])c4)c(Oc4cnc5[nH]ccc5c4)c3)CC2)=C(c2ccc(Cl)cc2)C1 [Venetoclax] + C[C@@H](Nc1cc(F)cc(F)c1)c1cc(C(=O)N(C)C)cc2c(=O)cc(N3CCOCC3)oc12 [AZD8186] (first compound max 1 µM, 7x7, partner max 3 µM) |  | 0.583 | 0.0866 | 0.428 | 0.12 | 0.101 | 0.154 | 0.164 | 0.145 | 0.345 | 0.168 | 0.216 | 0.24 | 0.245 | 0.383 | 
CC1(C)CCC(CN2CCN(c3ccc(C(=O)NS(=O)(=O)c4ccc(NCC5CCOCC5)c([N+](=O)[O-])c4)c(Oc4cnc5[nH]ccc5c4)c3)CC2)=C(c2ccc(Cl)cc2)C1 [Venetoclax] + Cc1cc2ncnn2cc1Nc1ncc2c(n1)n(C1CCOCC1)c(=O)n2C [AZD7648] (first compound max 1 µM, 7x7, partner max 10 µM) |  | 0.444 | 0.204 | 0.459 | 0.209 | 0.0827 | 0.401 | 0.109 | 0.561 | 0.284 | 0.24 | 0.39 | 0.123 | 0.283 | 0.292 | 
CC1(C)CCC(CN2CCN(c3ccc(C(=O)NS(=O)(=O)c4ccc(NCC5CCOCC5)c([N+](=O)[O-])c4)c(Oc4cnc5[nH]ccc5c4)c3)CC2)=C(c2ccc(Cl)cc2)C1 [Venetoclax] + Cn1cnc2c(F)c(Nc3ccc(Br)cc3Cl)c(C(=O)NOCCO)cc21 [Selumetinib] (first compound max 1 µM, 7x7, partner max 3 µM) |  | 0.432 | 0.757 | 0.286 | 0.285 | 0.16 | 0.324 | 0.316 | 0.0633 | 0.566 | 0.127 | 0.295 | 0.159 | 0.323 | 0.192 | 
